According to the supplement of paper PMC10307832:

How the values were obtained:
Experiment in all cases: relative viability (nuclei count vs DMSO), 5 days (fraction); higher = more cells survive
SGI-1776 + Bortezomib = compound: CN1CCC(CNc2ccc3ncc(-c4cccc(OC(F)(F)F)c4)n3n2)CC1 [SGI-1776] + CC(C)C[C@H](NC(=O)[C@H](Cc1ccccc1)NC(=O)c1cnccn1)B(O)O [Bortezomib] (partner 0.002 µM)
Outline: (§1)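 Lung cancer cell lines were seeded in 1536-well plates and dosed by pin tool the next day, with either a single drug or a fixed anchor-drug dose combined with five library-drug doses (not always all listed) spaced in √10 steps. Five days later, one step fixed the cells and stained their nuclei (final 0.05% Triton X-100, 1% formaldehyde, 1 ug/ml Hoechst), and nuclei were counted on 4× images. Relative viability is the nuclei count in treated wells divided by the count in vehicle wells, and each value is the median of duplicate plates.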

SGI-1776 + Linsitinib = compound: CN1CCC(CNc2ccc3ncc(-c4cccc(OC(F)(F)F)c4)n3n2)CC1 [SGI-1776] + C[C@]1(O)C[C@@H](c2nc(-c3ccc4ccc(-c5ccccc5)nc4c3)c3c(N)nccn32)C1 [Linsitinib] (partner 1 µM)
Outline: as §1

SGI-1776 + Olaparib = compound: CN1CCC(CNc2ccc3ncc(-c4cccc(OC(F)(F)F)c4)n3n2)CC1 [SGI-1776] + O=C(c1cc(Cc2n[nH]c(=O)c3ccccc23)ccc1F)N1CCN(C(=O)C2CC2)CC1 [Olaparib] (partner 8 µM)
Outline: as §1

Entinostat + Crizotinib = compound: Nc1ccccc1NC(=O)c1ccc(CNC(=O)OCc2cccnc2)cc1 [Entinostat] + C[C@@H](Oc1cc(-c2cnn(C3CCNCC3)c2)cnc1N)c1c(Cl)ccc(F)c1Cl [Crizotinib] (partner 1 µM)
Outline: as §1

## UMC-11
SGI-1776 + Bortezomib; first compound 0.08 µM
  relative viability: 0.741
SGI-1776 + Bortezomib; first compound 0.8 µM
  relative viability: 0.809
SGI-1776 + Bortezomib; first compound 2.53 µM
  relative viability: 0.647
SGI-1776 + Bortezomib; first compound 8 µM
  relative viability: 0.688
SGI-1776 + Linsitinib; first compound 0.08 µM
  relative viability: 1.06
SGI-1776 + Linsitinib; first compound 0.8 µM
  relative viability: 0.987
SGI-1776 + Linsitinib; first compound 2.53 µM
  relative viability: 0.971
SGI-1776 + Linsitinib; first compound 8 µM
  relative viability: 0.836
SGI-1776 + Olaparib; first compound 0.08 µM
  relative viability: 0.337
SGI-1776 + Olaparib; first compound 0.8 µM
  relative viability: 0.433
SGI-1776 + Olaparib; first compound 2.53 µM
  relative viability: 0.289
SGI-1776 + Olaparib; first compound 8 µM
  relative viability: 0.206
Entinostat + Crizotinib; first compound 0.02 µM
  relative viability: 0.623
Entinostat + Crizotinib; first compound 0.06325 µM
  relative viability: 0.646
Entinostat + Crizotinib; first compound 0.2 µM
  relative viability: 0.363
Entinostat + Crizotinib; first compound 0.6325 µM
  relative viability: 0.109
Entinostat + Crizotinib; first compound 2 µM
  relative viability: 0.0765
